The values below come from patent publication US8501214B2, “Hydrophilic foam and pharmaceutical dosage form employing the same” (priority 2007, dated 2013).

Series [1] in a line: Solvent/water partition coefficient analysis (1-Octanol/water). It counts as physicochemical. Conditions: for logP: logarithm of the ratio of 1-Octanol to water, read-out: Partition coefficient [log Poct/wat]. As to the method:
Solvent/water partition coefficient analysis was conducted to determine the solvent/water partition coefficient. Various solvent were used in the experiments; yet, only the 1-Octanol/water partition coefficients of the active agents described herein above are summarized in Table 4. The 1-Octanol/water partition coefficient is the logarithm of the ratio of 1-Octanol to water and can be expressed as [log Poct/wat].

A short description of series [2]: Transmembrane penetration analysis. It counts as in vitro ADME, swine. The note with it: for True Value Concentration (completely penetrated active agent): 0.25 mL gel admixed with 5.5 mL saline; for Penetration Ratio: relative to true value. From the text: The solution was admixed with the aquagel or O/W gel described hereinabove to afford an active agent-containing gel. In the comparative example, commercially available vaseline ointment was admixed with heptane to form vaseline gel, and the solution was also admixed with the vaseline gel.
In the transmembrane penetration analysis, swine endometrium was used as the membrane. The swine endometrium of suitable size was disposed between an upper container and a lower container. The lower container was filled with physiologic saline and debubbled. […] The pipetted sample was analyzed with HPLC-PDA system.
In addition, about 0.25 mL of each gel was admixed with about 5.5 mL of saline. The admixture was extracted, filtered through a filter film (0.45 μm) and then analyzes by HPLE-PDA. The results (referred to as the “true value” hereinafter) thus obtained were regarded as the amount of a completely penetrated active agent present in the lower container.

Where [3] appears, read: Comparative Example D (vaseline gel).
[4] abbreviates: Working Example 3 (aqua gel), 1 hr.
Setting [5] is: Working Example 3 (aqua gel), 3 hr.
Setting [6] is: Working Example 3 (aqua gel), 5 hr.
[7] abbreviates: Working Example 3 (aqua gel), 21 hr.
The mark [8] stands for this setting: Working Example 3 (aqua gel), 24 hr.
The mark [9] stands for this setting: Working Example 4 (O/W gel), 21 hr.
Setting [10] is: Working Example 4 (O/W gel), 24 hr.
Setting [11] is: Working Example 4 (O/W gel), 26 hr.

Where two headings read alike, the source gives them in different places.

As for `Nc1nc2c(ncn2COCCO)c(=O)[nH]1` [Acyclovir (ACY), Acyclovir], the logP in series [1] (1-octanol/water) is -1.58. Besides, the “True Value Concentration (completely penetrated active agent)” value (“True Value Concentration” below) is 0.1865 mg/mL in series [2] (setting [3]), 0.09979 mg/mL in series [2] (Working Example 3 (aqua gel)) and 0.1375 mg/mL in series [2] (Working Example 4 (O/W gel)). Also, the “Concentration in lower container” value came out at 5970 ng/mL in series [2] (setting [4]); 21420 ng/mL in series [2] (setting [5]); 29640 ng/mL in series [2] (setting [6]); 62890 ng/mL in series [2] (setting [7]); 58630 ng/mL in series [2] (setting [8]); 2510 ng/mL in series [2] (setting [9]). Moreover, the “Concentration in lower container” value in series [2] (setting [10]) stood at 60500 ng/mL; in series [2] (setting [11]), 83400 ng/mL.

With `O=c1cc(-c2ccccc2)oc2cc(O)c(O)c(O)c12` [Baicalein], the 1-Octanol/H2O ratio result in series [1] is “Insoluble in water”.

On to `O=C(O)c1cc(O)c(O)c(O)c1` [Gallic acid], for which, in series [1], the 1-Octanol/H2O ratio amounted to 1.859 and the logP came to 0.27.

`O=c1ccc2ccc3occc3c2o1` [Isopsoralen]: in series [1], the 1-Octanol/H2O ratio worked out at 306.9 and the logP is 2.49.

In the case of `Cc1ncc([N+](=O)[O-])n1CCO` [Metronidazole (MTZ), Metronidazole], the logP in series [1] (1-octanol/water) worked out at 0.05. For the same molecule, the “True Value Concentration” value in series [2] (setting [3]) was found to be 0.1563 mg/mL; in series [2] (Working Example 3 (aqua gel)) it was 0.09568 mg/mL; in series [2] (Working Example 4 (O/W gel)), 0.1433 mg/mL. Further, the “Concentration in lower container” value in series [2] (Comparative Example D (vaseline gel), 3 hr) is 460 ng/mL; in series [2] (Comparative Example D (vaseline gel), 5 hr), 590 ng/mL; in series [2] (Comparative Example D (vaseline gel), 10.5 hr) it was 960 ng/mL; in series [2] (Comparative Example D (vaseline gel), 24 hr), 1740 ng/mL; in series [2] (Comparative Example D (vaseline gel), 26 hr), 1430 ng/mL; in series [2] (setting [4]) it was 13200 ng/mL. The “Concentration in lower container” value in series [2] (setting [5]) is 31080 ng/mL; in series [2] (setting [6]), 395900 ng/mL; in series [2] (setting [7]), 635800 ng/mL; in series [2] (setting [8]), 587100 ng/mL; in series [2] (Working Example 3 (aqua gel), 26 hr), 595100 ng/mL; in series [2] (setting [9]), 6510 ng/mL. Also, the “Concentration in lower container” value in series [2] (setting [10]) is 61670 ng/mL; in series [2] (setting [11]), 81070 ng/mL.

Turning to `Clc1ccc(COC(Cn2ccnc2)c2ccc(Cl)cc2Cl)c(Cl)c1` (centres unmarked) [Miconazole nitrate(MIC), Miconazole nitrate], the “True Value Concentration” value in series [2] (Working Example 4 (O/W gel)) was 0.1401 mg/mL. Besides, the “Concentration in lower container” value in series [2] (setting [9]) was determined as 7060 ng/mL; in series [2] (setting [10]), 60660 ng/mL; in series [2] (setting [11]), 82720 ng/mL.

Take `C[C@@H]1[C@H](O)[C@@H](C)/C=C/C=C/CC/C=C/C=C/C=C/C=C/C(O[C@H]2O[C@H](C)[C@@H](O)[C@H](N)[C@@H]2O)CC2O[C@](O)(CC(O)C(O)CCC(O)CC(O)CC(O)CC(=O)O[C@H]1C)CC(O)C2C(=O)O` (some centres unmarked) [Nystatin (NYS), Nystatin]: in series [1], the 1-Octanol/H2O ratio is 1.98 and the “Partition coefficient [log Poct/wat]” value is on record as 0.30. In series [2] (Working Example 4 (O/W gel)), the “True Value Concentration” value is given as 0.06448 mg/mL. In series [2] (setting [9]), the “Concentration in lower container” value amounted to 1930 ng/mL and the “Penetration Ratio” value is recorded as 2.99%. In addition, in series [2] (setting [10]), the “Concentration in lower container” value was 20720 ng/mL and the “Penetration Ratio” value is recorded as 32.14%. In series [2] (setting [11]), the “Concentration in lower container” value was 30070 ng/mL and the “Penetration Ratio” value is given as 46.64%.

With `CC(C)[C@]12O[C@H]1[C@@H]1O[C@]13[C@]1(O[C@H]1C[C@H]1C4=C(CC[C@@]13C)C(=O)OC4)[C@@H]2O` [Triptolide], in series [1], the 1-Octanol/H2O ratio is on record as 54.13 and the logP stood at 1.73.
